Consider 6 molecules from patent US20250054582A1, “METHOD OF IDENTIFYING A SOLVENT FOR A MATRIKINE” (THE BOOTS COMPANY PLC, priority 2021, published 2025).

Peptide text beside a SMILES is read from it.

Series [1] can be described thus: HSPiP analysis: Hansen Solubility Sphere of the matrikine from solubility scores. The following applies: for δD / δH / δP: Hansen Solubility Parameter of the peptide; for δD / δH / δP / R (Size of HSP Sphere): overall results summary; for δD value / δH value: in words, HSPiP fit of solubility scores; for radius: radius of the HSP sphere. It is filed as physicochemical. Also on record: δD / δP: unit not given here. The protocol: (§1) The HSP sphere of seven different matrikines was determined by using a range of reference solvents (solvents with known HSP spheres) to dissolve the matrikines. The reference solvents were then ranked based on their ability to dissolve the matrikines. A software package called Hansen Solubility Parameters in Practice (HSPiP) was then used to determine the HSPs of each of the matrikines.
The use of qualitative rankings of solubility phenomena makes it possible to define a spheroidal cluster in which the most compatible samples are contained.
The scores from 1 to 6 were entered into the HSPiP data form and then the software analyses the data to produce a Hansen diagram of the solubility sphere, alongside details of the solubility parameters and the goodness of the fit of the data to the sphere, in text format.

Series [2] can be described thus: Qualitative solubility ranking of matrikines in reference solvents. Type of series: physicochemical. The protocol: as §1
In general, a set of around 20 standard reference solvents was used to carry out preliminary investigations in solubility tests. Following this, additional/fine-tuning (FT) solvents were selected and used to are used to optimise the reliability and definition of the solubility parameters of the matrikines.
All samples were prepared under standard conditions, within an air-conditioned laboratory environment, at 20° C. and a standard pressure.
Usually, samples are prepared on the Formax High-throughput Formulation System, manufactured by Chemspeed. However due to the small sample size, the samples of this project were prepared manually using a single channel pipette for liquids and an analytical balance for solids.
Qualitative evaluation of the solubility of the matrikines within a range of different reference solvents was used. Samples were placed into six categories, according to the relative extent to which the matrikine dissolved in the solvent.
Between these two extremes sit the other four ranking-categories, whose typical descriptions can be found in table 1 below.

Series [3] in a line: Franz cell skin explant penetration with 3D OrbiSIMS analysis. It is filed as in vitro ADME, human. The method, then: For ex vivo analysis, full thickness human skin tissue was removed during cosmetic surgery from Caucasian female donors (aged 35-70). The explant was frozen immediately post-surgery, shipped and stored at −20° C. prior to use.
The tissue was then defrosted, cut and mounted, dermal side down, in a Franz-type static diffusion cell set-up (Franz, 1975), with an exposed surface area of 1.1 cm^2. Infinite doses of the cosmetic formulations were applied to the donor chamber, with the explant exposed to the formulations for 1 hour in a water bath set to 36.5° C. Sink conditions were maintained throughout the experiments.
After 1 hour, the Franz cell was dismantled, excess formulation was removed with a dry sponge and the skin explant was wiped with a sponge soaked in Teepol Solution (3% v/v). Next, the explant was dehydrated under vacuum at room temperature for 24 hours before 3D OrbiSIMS analysis […]
A 20 KeV Ar3000+ analysis beam with a diameter of 20 μm was used as the primary ion source. Samples were analysed at ambient temperature across a 400×400 μm area in positive polarity with sawtooth raster mode and a total crater size of 486×486 μm. […] Mass spectra were recorded at a resolution of 240,000 at m/z 200 in the mass range of 75 to 1,125 m/z. […]

[4] abbreviates: blend Glycerol Carbonate:Dimethyl Formamide:1-Propanol 55:25:20%.

With `CCCCCCCCCCCCCCCC(=O)N[C@@H](CCC(=O)O)C(=O)N[C@@H](CCCCN)C(=O)NCC(=O)N[C@@H](CC(=O)O)C(=O)O` [Pal-EKGD] (HELM PEPTIDE1{[CCCCCCCCCCCCCCCC(=O)[*:2]].E.K.G.D}$$$$V2.0), in series [1], the “greatest contribution to the cohesive energy density” value (“greatest contribution” for short) is recorded as “Dispersion forces”, the δD is 17.31, the δH is given as 17.26 and the δP was 13.92. Moreover, in series [1], the δD value entry is “moderate”, the δH value entry is “moderate”, the R (Size of HSP Sphere) came out at 10.3 MPa^0.5 and the radius is 10.3 units.

Take `CCCCCCCCCCCCCCCC(=O)N[C@@H](CC(C)C)C(=O)N[C@@H](CO)C(=O)N[C@H](C(=O)N[C@@H](CC(=O)O)C(=O)O)C(C)C` [Pal-LSVD] (HELM PEPTIDE1{[CCCCCCCCCCCCCCCC(=O)[*:2]].L.S.V.D}$$$$V2.0): in series [1], the “greatest contribution” value is “Dispersion forces”, the δD is reported as 18.84, the δH came out at 14.82 and the δP amounted to 12.04. Moreover, in series [1], the δD value entry was “high”, the δH value entry was “low”, the R (Size of HSP Sphere) was 6.8 MPa^0.5 and the radius came out at 6.8 units. The “solubility over the reference solvents tested (in words)” value in series [2] was “very limited solubility”.

With `CCCCCCCCCCCCCCCC(=O)N[C@@H](CCC(N)=O)C(=O)N[C@H](C(=O)N[C@@H](C)C(=O)N[C@H](C(=O)O)C(C)C)[C@@H](C)O` [Pal-QTAV] (HELM PEPTIDE1{[CCCCCCCCCCCCCCCC(=O)[*:2]].Q.T.A.V}$$$$V2.0), in series [1], the “greatest contribution” value is “Dispersion forces”, the δD is 17.61, the δH amounted to 10.95 and the δP turned out to be 10.66. For the same molecule, in series [1], the δD value entry is “moderate”, the δH value result is recorded as “low”, the R (Size of HSP Sphere) came to 6 MPa^0.5 and the radius is given as 6 units. Moreover, in series [2] (setting [4]), the “dissolution (in words)” value was “didn't dissolve”.

As for `CCCCCCCCCCCCCCCC(=O)NCC(=O)N[C@@H](Cc1c[nH]cn1)C(=O)N[C@@H](CCCCN)C(=O)O` [Pal-GHK, N-Palmitoyl-Gly-His-Lys] (HELM PEPTIDE1{[CCCCCCCCCCCCCCCC(=O)[*:2]].G.H.K}$$$$V2.0), in series [1], the “greatest contribution” value is listed as “Dispersion forces”, the δD was 17.83, the δH was 11.22 and the δP worked out at 6.57. Further, in series [1], the δD value result is listed as “moderate”, the δH value entry is on record as “low”, the R (Size of HSP Sphere) worked out at 3.5 MPa^0.5 and the radius worked out at 3.5 units. The “penetration into the skin tissues” value in series [3] (formulation containing methyl gluceth-20 compared to glycerin only, 1 hour) is listed as “penetrated quicker”. Moreover, in series [3] (formulation with glycerin+methyl gluceth-20 versus glycerin only, 1 hour in Franz cell, 3D OrbiSIMS), the “Pal-GHK peptide ion intensity in skin explant” value is recorded as “more peptide ion present”. In addition, in series [2], the “solubility over the reference solvents tested (in words)” value is given as “No samples showed complete dissolution”.

In the case of `CCCCCCCCCCCCCCCC(=O)NCC(=O)N[C@@H](CCC(N)=O)C(=O)N1CCC[C@H]1C(=O)N[C@@H](CCCNC(=N)N)C(=O)O` [Pal-GQPR, N-palmitoyl-Gly-Gln-Pro-Arg] (HELM PEPTIDE1{[CCCCCCCCCCCCCCCC(=O)[*:2]].G.Q.P.R}$$$$V2.0), the “dissolution (in words)” value is on record as “did not dissolve” in series [2] (blend Benzyl Alcohol:2-Propanol 80:20%), “did not dissolve” in series [2] (setting [4]), “most interaction with the product without complete dissolution” in series [2] (solvent 2-PhenoxyEthanol) and “complete dissolution” in series [2] (solvent N-Methyl Formamide).

For `CCCCCCCCCCCCCCCC(=O)NCC(=O)N1CCC[C@H]1C(=O)N[C@@H](CCCCN)C(=O)NCC(=O)O` [Pal-GPKG] (HELM PEPTIDE1{[CCCCCCCCCCCCCCCC(=O)[*:2]].G.P.K.G}$$$$V2.0), in series [1], the “greatest contribution” value is “Dispersion forces”, the δD was 17.82, the δH was determined as 17.73 and the δP is 10.55. In series [1], the δD value entry was “moderate”, the δH value result is “moderate”, the R (Size of HSP Sphere) was determined as 8.3 MPa^0.5 and the radius amounted to 8.3 units. In addition, the “dissolution (in words)” value in series [2] (blend Propylene Carbonate:Propylene Glycol 65:35%) is given as “did not dissolve”. Besides, the “dissolution (in words)” value in series [2] (blend Propylene Glycol Monomethyl Ether:Propylene Carbonate 55:45%) is reported as “did not dissolve”.
